Measured values from US10280404B2, “Optimized HCV full-length infectious cell culture systems and applications thereof” (Hvidore Hospital, priority 2014, dated 2019).
Entries after “also recorded” stand apart in the source; their conditions may differ.

Experiments:
[1] = system: CD81-deficient S29 cells; assay: Single-cycle production assay: intra- and extracellular infectivity titers and core levels; format: cell-based, human; details: 48 hours after transfection
Protocol: Determination of intra- and extra-cellular HCV core levels and infectivity titers. For single-cycle production assays, an Huh7-derived CD-81 deficient cell line S29 was transfected with HCV RNA and intracellular HCV core levels were measured 4 and 48 hours post transfection. Additionally, intra- and extra-cellular HCV infectivity titers, as well as extracellular HCV core concentration, were determined 48 hours post transfection, as described previously. Briefly, for this assay, S29 cells were seeded in 6 well plates (˜3.5×10^5 cells/well) 24 hours prior to transfection. Plasmids of the different full-length clones were digested with XbaI (New England Biolabs, NEB) for linearization and treated with Mung Bean nuclease (NEB). HCV RNA was generated by in vitro transcription using T7 RNA polymerase (Promega). […] RNA was quantified using spectrophotometry (NanoDrop) and 10 μg of RNA was used for transfection with Lipofectamine 2000 (Invitrogen). […] Both, intra- and extra-cellular core antigen levels were determined by the Architect HCV Ag detection system (Abbott) following the manufacturer's instructions. […] Specific dilutions were analyzed in triplicate for HCV infectivity titers, and the FFU was counted using an ImmunoSpot Series 5 UV Analyzer with customized software (CTL Europe GmbH), and confirmed by manual count. […]

[2] = system: Huh7.5 cells; assay: HCV infectivity titers (FFU assay) of culture supernatant after RNA transfection or viral passage; format: cell-based, human
Protocol: Transfection and infection of Huh7.5 cells. The human hepatoma cell line Huh7.5 was maintained as described. Cells were plated in 6-well plates (˜3.5×10^5 cells/well) ˜24 hours before RNA transfection or viral infection, reaching 80-90% confluence at the time of inoculation. RNA transfection and viral infection were performed as previously described. The transfected or infected cultures were incubated for ˜16 hours, and sub-cultured every 2-3 days; culture supernatant was collected, filtered (0.45 μm), and stored at […] until analysis.
Analysis of HCV in cultured cells. […] Percentage of HCV antigen positive cells in the culture was determined with fluorescence microscopy. Culture supernatants were collected when 80% of cells were HCV antigen positive (peak infection) and HCV infectivity titers were determined by an FFU assay using a combination of C7-50 and 9E10, as previously described. […] The number of FFU was automatically counted with an ImmunoSpot Series 5 UV Analyzer with customized software (CTL Europe GmbH). HCV RNA titers in the culture supernatant were determined using real time RT-PCR TaqMan method. Core antigen levels were determined by the Architect HCV Ag detection system (Abbott) following manufacturer's instructions. Whole ORF sequences of passaged viruses were determined using procedures previously described for the sequencing of H77C and JFH1 genomes.

HCV1_LSGF/S399F/TNm/4m: full-length HCV-1 recombinant with LSGF/S399F/TNm plus A970T/I1312V/C2419R/A2919T
extracellular infectivity titers [1]: comparable to those of HCV1cc | day at which HCV infectivity titers were first detectable ([2]; after transfection of Huh7.5 cells, detection limit 10^2.4 FFU/ml): 4 days | infectivity titers compared with HCV1cc ([2]; transfected Huh7.5 cells): slightly lower than those of HCV1cc; also recorded: close to those of HCV1cc
